{
  "source": "the supplement of paper PMC8967900",
  "data": [
    {"tested_on": "COG-LL-394h", "experiment": "selective drug sensitivity score (sDSS, relative to normal bone marrow) (sDSS (score)); higher = more potent and effective on the cell line relative to normal bone marrow cells", "details": "72 h", "values": [
      {"compound": "Nc1nc2cc(-c3ccc4ncc(C(=O)N5CCOCC5)n4c3)ccc2o1", "note": "[Serabelisib] (top concentration 10000 nM)", "selective drug sensitivity score": -1.54},
      {"compound": "COc1cccc(-c2ccc(NC(=O)C3=C(C(=O)O)CCC3)c(F)c2)c1", "note": "[Vidofludimus] (top concentration 10000 nM)", "selective drug sensitivity score": 0},
      {"compound": "Cc1cccc(-c2nn3c(c2-c2ccnc4ccc(C(N)=O)cc24)CCC3)n1", "note": "[Galunisertib] (top concentration 1000 nM)", "selective drug sensitivity score": 0},
      {"compound": "COc1cc2c(N3CCN(C(=O)Nc4ccc(OC(C)C)cc4)CC3)ncnc2cc1OCCCN1CCCCC1", "note": "[Tandutinib] (top concentration 1000 nM)", "selective drug sensitivity score": 0.3},
      {"compound": "Cc1c(F)cc(C(=O)NC2CC2)cc1-c1ccc(C(=O)NCC(C)(C)C)cn1", "note": "[Losmapimod] (top concentration 10000 nM)", "selective drug sensitivity score": -0.18},
      {"compound": "Nc1nc(N)c2nc(-c3cccc(O)c3)c(-c3cccc(O)c3)nc2n1", "note": "[TG100-115] (top concentration 10000 nM)", "selective drug sensitivity score": -0.4},
      {"compound": "C[C@]12CC[C@@H]3c4ccc(O)cc4C[C@@H](CCCCCCCCC[S+]([O-])CCCC(F)(F)C(F)(F)F)[C@H]3[C@@H]1CC[C@@H]2O", "note": "(stereo not given in full) [Fulvestrant] (top concentration 1000 nM)", "selective drug sensitivity score": 0},
      {"compound": "O=C(Nc1cccnc1)N1CCC(Cc2cccc(Oc3ccc(C(F)(F)F)cn3)c2)CC1", "note": "[PF-3845] (top concentration 10000 nM)", "selective drug sensitivity score": 3.96},
      {"compound": "COc1cc2c(cc1OCCCN1CCCC1)N=C(N)C21CCC1", "note": "[A-366] (top concentration 25000 nM)", "selective drug sensitivity score": 2.06},
      {"compound": "Oc1ncnc2[nH]ncc12", "note": "[Allopurinol] (top concentration 10000 nM)", "selective drug sensitivity score": -0.64},
      {"compound": "CC(C)n1cnc2c(NCCc3ccc(O)cc3)nc(-c3csc4ccccc34)nc21", "note": "[StemRegenin_1] (top concentration 10000 nM)", "selective drug sensitivity score": -1.8},
      {"compound": "C#Cc1cccc(Nc2ncnc3cc4c(cc23)OCCOCCOCCO4)c1", "note": "[Icotinib] (top concentration 10000 nM)", "selective drug sensitivity score": 0},
      {"compound": "CN[C@@H](C)C(=O)N[C@H]1CN(C(=O)CC(C)C)CC[C@H]2CC[C@@H](C(=O)NC(c3ccccc3)c3ccccc3)N2C1=O", "note": "[AT-406] (top concentration 10000 nM)", "selective drug sensitivity score": 5.84},
      {"compound": "CC(C)(O)CC(=O)NCCn1ccc2ncnc(Nc3ccc(Oc4cccc(C(F)(F)F)c4)c(Cl)c3)c21", "note": "[TAK-285] (top concentration 2500 nM)", "selective drug sensitivity score": 0},
      {"compound": "COc1cc(C)[nH]c(=O)c1CNC(=O)c1c(C)n([C@H](C)C2CCOCC2)c2ccccc12", "note": "[CPI-360] (top concentration 10000 nM)", "selective drug sensitivity score": 0},
      {"compound": "Cc1cc2c(C(=O)NC[C@H](C)c3ccccc3)c(O)c(O)cc2c(O)c1-c1c(C)cc2c(C(=O)NC[C@H](C)c3ccccc3)c(O)c(O)cc2c1O", "note": "[Sabutoclax] (top concentration 25000 nM)", "selective drug sensitivity score": 15.7},
      {"compound": "CC(C)(C)C[C@@H]1N[C@@H](C(=O)N[C@H]2CC[C@H](O)CC2)[C@H](c2cccc(Cl)c2F)[C@]12C(=O)Nc1cc(Cl)ccc12", "note": "(top concentration 10000 nM)", "selective drug sensitivity score": 6.46},
      {"compound": "C[C@@H]1C[C@H]2[C@@H]3CCC4=CC(=O)C=C[C@]4(C)[C@@]3(F)[C@@H](O)C[C@]2(C)[C@@]1(O)C(=O)CO", "note": "[Dexamethasone] (top concentration 10000 nM)", "selective drug sensitivity score": -1.52}
    ]},
    {"tested_on": "COG-LL-402h", "experiment": "selective drug sensitivity score (sDSS, relative to normal bone marrow) (sDSS (score)); higher = more potent and effective on the cell line relative to normal bone marrow cells", "details": "72 h", "values": [
      {"compound": "Nc1nc2cc(-c3ccc4ncc(C(=O)N5CCOCC5)n4c3)ccc2o1", "note": "[Serabelisib] (top concentration 10000 nM)", "selective drug sensitivity score": -0.14},
      {"compound": "COc1cccc(-c2ccc(NC(=O)C3=C(C(=O)O)CCC3)c(F)c2)c1", "note": "[Vidofludimus] (top concentration 10000 nM)", "selective drug sensitivity score": 0},
      {"compound": "Cc1cccc(-c2nn3c(c2-c2ccnc4ccc(C(N)=O)cc24)CCC3)n1", "note": "[Galunisertib] (top concentration 1000 nM)", "selective drug sensitivity score": 0},
      {"compound": "COc1cc2c(N3CCN(C(=O)Nc4ccc(OC(C)C)cc4)CC3)ncnc2cc1OCCCN1CCCCC1", "note": "[Tandutinib] (top concentration 1000 nM)", "selective drug sensitivity score": 0},
      {"compound": "Cc1c(F)cc(C(=O)NC2CC2)cc1-c1ccc(C(=O)NCC(C)(C)C)cn1", "note": "[Losmapimod] (top concentration 10000 nM)", "selective drug sensitivity score": 0.42},
      {"compound": "Nc1nc(N)c2nc(-c3cccc(O)c3)c(-c3cccc(O)c3)nc2n1", "note": "[TG100-115] (top concentration 10000 nM)", "selective drug sensitivity score": -0.4},
      {"compound": "C[C@]12CC[C@@H]3c4ccc(O)cc4C[C@@H](CCCCCCCCC[S+]([O-])CCCC(F)(F)C(F)(F)F)[C@H]3[C@@H]1CC[C@@H]2O", "note": "(stereo not given in full) [Fulvestrant] (top concentration 1000 nM)", "selective drug sensitivity score": 0},
      {"compound": "O=C(Nc1cccnc1)N1CCC(Cc2cccc(Oc3ccc(C(F)(F)F)cn3)c2)CC1", "note": "[PF-3845] (top concentration 10000 nM)", "selective drug sensitivity score": -0.84},
      {"compound": "COc1cc2c(cc1OCCCN1CCCC1)N=C(N)C21CCC1", "note": "[A-366] (top concentration 25000 nM)", "selective drug sensitivity score": -1.84},
      {"compound": "Oc1ncnc2[nH]ncc12", "note": "[Allopurinol] (top concentration 10000 nM)", "selective drug sensitivity score": -0.64},
      {"compound": "CC(C)n1cnc2c(NCCc3ccc(O)cc3)nc(-c3csc4ccccc34)nc21", "note": "[StemRegenin_1] (top concentration 10000 nM)", "selective drug sensitivity score": -1.8},
      {"compound": "C#Cc1cccc(Nc2ncnc3cc4c(cc23)OCCOCCOCCO4)c1", "note": "[Icotinib] (top concentration 10000 nM)", "selective drug sensitivity score": 0},
      {"compound": "CN[C@@H](C)C(=O)N[C@H]1CN(C(=O)CC(C)C)CC[C@H]2CC[C@@H](C(=O)NC(c3ccccc3)c3ccccc3)N2C1=O", "note": "[AT-406] (top concentration 10000 nM)", "selective drug sensitivity score": -0.86},
      {"compound": "CC(C)(O)CC(=O)NCCn1ccc2ncnc(Nc3ccc(Oc4cccc(C(F)(F)F)c4)c(Cl)c3)c21", "note": "[TAK-285] (top concentration 2500 nM)", "selective drug sensitivity score": 0},
      {"compound": "COc1cc(C)[nH]c(=O)c1CNC(=O)c1c(C)n([C@H](C)C2CCOCC2)c2ccccc12", "note": "[CPI-360] (top concentration 10000 nM)", "selective drug sensitivity score": 0},
      {"compound": "Cc1cc2c(C(=O)NC[C@H](C)c3ccccc3)c(O)c(O)cc2c(O)c1-c1c(C)cc2c(C(=O)NC[C@H](C)c3ccccc3)c(O)c(O)cc2c1O", "note": "[Sabutoclax] (top concentration 25000 nM)", "selective drug sensitivity score": 15.3},
      {"compound": "CC(C)(C)C[C@@H]1N[C@@H](C(=O)N[C@H]2CC[C@H](O)CC2)[C@H](c2cccc(Cl)c2F)[C@]12C(=O)Nc1cc(Cl)ccc12", "note": "(top concentration 10000 nM)", "selective drug sensitivity score": 13.4},
      {"compound": "C[C@@H]1C[C@H]2[C@@H]3CCC4=CC(=O)C=C[C@]4(C)[C@@]3(F)[C@@H](O)C[C@]2(C)[C@@]1(O)C(=O)CO", "note": "[Dexamethasone] (top concentration 10000 nM)", "selective drug sensitivity score": 29.3}
    ]},
    {"tested_on": "HPB-ALL", "experiment": "selective drug sensitivity score (sDSS, relative to normal bone marrow) (sDSS (score)); higher = more potent and effective on the cell line relative to normal bone marrow cells", "details": "72 h", "values": [
      {"compound": "Nc1nc2cc(-c3ccc4ncc(C(=O)N5CCOCC5)n4c3)ccc2o1", "note": "[Serabelisib] (top concentration 10000 nM)", "selective drug sensitivity score": 0.66},
      {"compound": "COc1cccc(-c2ccc(NC(=O)C3=C(C(=O)O)CCC3)c(F)c2)c1", "note": "[Vidofludimus] (top concentration 10000 nM)", "selective drug sensitivity score": 3.2},
      {"compound": "Cc1cccc(-c2nn3c(c2-c2ccnc4ccc(C(N)=O)cc24)CCC3)n1", "note": "[Galunisertib] (top concentration 1000 nM)", "selective drug sensitivity score": 0},
      {"compound": "COc1cc2c(N3CCN(C(=O)Nc4ccc(OC(C)C)cc4)CC3)ncnc2cc1OCCCN1CCCCC1", "note": "[Tandutinib] (top concentration 1000 nM)", "selective drug sensitivity score": 0},
      {"compound": "Cc1c(F)cc(C(=O)NC2CC2)cc1-c1ccc(C(=O)NCC(C)(C)C)cn1", "note": "[Losmapimod] (top concentration 10000 nM)", "selective drug sensitivity score": 2.32},
      {"compound": "Nc1nc(N)c2nc(-c3cccc(O)c3)c(-c3cccc(O)c3)nc2n1", "note": "[TG100-115] (top concentration 10000 nM)", "selective drug sensitivity score": -0.4},
      {"compound": "C[C@]12CC[C@@H]3c4ccc(O)cc4C[C@@H](CCCCCCCCC[S+]([O-])CCCC(F)(F)C(F)(F)F)[C@H]3[C@@H]1CC[C@@H]2O", "note": "(stereo not given in full) [Fulvestrant] (top concentration 1000 nM)", "selective drug sensitivity score": 0.2},
      {"compound": "O=C(Nc1cccnc1)N1CCC(Cc2cccc(Oc3ccc(C(F)(F)F)cn3)c2)CC1", "note": "[PF-3845] (top concentration 10000 nM)", "selective drug sensitivity score": -0.14},
      {"compound": "COc1cc2c(cc1OCCCN1CCCC1)N=C(N)C21CCC1", "note": "[A-366] (top concentration 25000 nM)", "selective drug sensitivity score": -1.84}
    ]}
  ]
}
